# Patent publication US20060069132A1, “Azolecarboxamide herbicides” (priority 2004, published 2006)
# Legend:
# barnyardgrass [1] = test: Test B pre-/postemergence herbicide test; assay type: in vivo, Echinochloa crus-galli; details: for Barnyardgrass plant response rating: postemergence, scale 0 (no effect) to 100 (complete control)
# Summary of the method: (§1)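 Pre: seeds sown, then sprayed. Post: 1–4-leaf plants (2–18 cm) sprayed at the same time. Paddy: flooded, treated at 2-leaf stage. Formulation: non-phytotoxic solvent with surfactant. Greenhouse 13–15 days; visual 0–100 score relative to controls.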
# rice [2] = test: Test B flooded paddy test; assay type: in vivo, Oryza sativa; details: 1000 g ai/ha, visual rating, scale 0 to 100 (0 no effect, 100 complete control), 13 to 15 days
# Summary of the method: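 Formulated test chemicals went onto postemergence plants measuring 2 to 18 cm, at one to four leaves. For the paddy assay, species had reached two leaves. Scoring took place 13–15 days later by eye, relative to untreated plants, using 0 for no effect up to 100 for full control.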
# Surinam grass = test: Test B pre-/postemergence herbicide test; assay type: in vivo, Urochloa decumbens; details: for Surinam Grass plant response rating: postemergence, scale 0 (no effect) to 100 (complete control)
# Summary of the method: (§2)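 Plants compared with untreated controls 13–15 days post-treatment and given a visual 0–100 injury score. Applications: preemergence to seeds; postemergence at 1- to 4-leaf (2–18 cm); paddy species flooded, 2-leaf stage. Vehicle non-phytotoxic, surfactant included.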
# velvetleaf [3] = test: Test B pre-/postemergence herbicide test; assay type: in vivo, Abutilon theophrasti; details: for Velvetleaf plant response rating: postemergence, scale 0 (no effect) to 100 (complete control)
# Summary of the method: as §2
# ducksalad = test: Test B flooded paddy test; assay type: in vivo, Heteranthera limosa; details: 1000 g ai/ha, visual rating, scale 0 to 100 (0 no effect, 100 complete control), 13 to 15 days
# Summary of the method: (§3)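 Read-out: visual comparison with controls, scored 0 to 100, where 100 means complete control and 0 no effect. Formulated chemicals were applied postemergence to plants 2–18 cm tall (1- to 4-leaf), or to flooded-paddy plants at the 2-leaf stage, then held 13 to 15 days under glass.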
# pigweed = test: Test B pre-/postemergence herbicide test; assay type: in vivo, Amaranthus retroflexus; details: for Pigweed plant response rating: postemergence, scale 0 (no effect) to 100 (complete control)
# Summary of the method: as §2
# wheat = test: Test B postemergence herbicide test; assay type: in vivo, Triticum aestivum; design: key to Wheat plant response rating: 0 = no effect, 100 = complete control; details: postemergence, visual rating, scale 0 (no effect) to 100 (complete control)
# Summary of the method: (§4)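 Greenhouse test; postemergence application to plants at 1–4 leaves (2–18 cm); paddy species at 2 leaves; evaluated visually vs controls at 13–15 days; scale 0–100 (100 = complete control).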
# large crabgrass [4] = test: Test A pre-/postemergence herbicide test; assay type: in vivo, Digitaria sanguinalis
# Summary of the method: (§5)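 Pre: seeded sandy loam, directed soil spray, compound in non-phytotoxic solvent + surfactant. Post: 1–2-leaf plants (2–10 cm), sprayed to runoff. Greenhouse ~10 d; visual injury vs untreated, 0–100 scale.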
# [5] = tested on: small flower umbrella sedge; test: Test B flooded paddy test; assay type: in vivo, Cyperus difformis; details: 1000 g ai/ha, visual rating, scale 0 to 100 (0 no effect, 100 complete control), 13 to 15 days
# Summary of the method: as §3
# corn = test: Test B pre-/postemergence herbicide test; assay type: in vivo, Zea mays; details: for Corn plant response rating: postemergence, scale 0 (no effect) to 100 (complete control)
# Summary of the method: as §2
# large crabgrass [6] = test: Test B pre-/postemergence herbicide test; assay type: in vivo, Digitaria sanguinalis; details: for Crabgrass, Large plant response rating: postemergence, scale 0 (no effect) to 100 (complete control)
# Summary of the method: as §2
# barnyardgrass [7] = test: Test B flooded paddy test; assay type: in vivo, Echinochloa crus-galli; details: 1000 g ai/ha, visual rating, scale 0 to 100 (0 no effect, 100 complete control), 13 to 15 days
# Summary of the method: as §3
# blackgrass = test: Test B postemergence herbicide test; assay type: in vivo, Alopecurus myosuroides; details: postemergence, visual rating, scale 0 (no effect) to 100 (complete control)
# Summary of the method: as §3
# lambsquarters = test: Test B pre-/postemergence herbicide test; assay type: in vivo, Chenopodium album; details: for Lambsquarters plant response rating: postemergence, scale 0 (no effect) to 100 (complete control)
# Summary of the method: as §2
# wild oat = test: Test B postemergence herbicide test; assay type: in vivo, Avena fatua; details: postemergence, visual rating, scale 0 (no effect) to 100 (complete control)
# Summary of the method: as §4
# redroot pigweed = test: Test A pre-/postemergence herbicide test; assay type: in vivo, Amaranthus retroflexus
# Summary of the method: as §5
# cocklebur = test: Test B pre-/postemergence herbicide test; assay type: in vivo, Xanthium strumarium; details: for Cocklebur plant response rating: postemergence, scale 0 (no effect) to 100 (complete control)
# Summary of the method: as §1
# velvetleaf [8] = test: Test A pre-/postemergence herbicide test; assay type: in vivo, Abutilon theophrasti
# Summary of the method: as §5
# barnyardgrass [9] = test: Test A pre-/postemergence herbicide test; assay type: in vivo, Echinochloa crus-galli
# Summary of the method: as §5
# rice [10] = test: Test B pre-/postemergence herbicide test; assay type: in vivo, Oryza sativa; details: 0 = no effect, 100 = complete control, preemergence
# Summary of the method: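 Greenhouse pot assay with simultaneous preemergence (treated seed) and postemergence (2–18 cm seedlings) applications of surfactant-containing, non-phytotoxic solvent formulations. Response scored visually 13–15 days later on a 0–100 scale, 100 meaning complete control.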
# morningglory [11] = test: Test A pre-/postemergence herbicide test; assay type: in vivo, Ipomoea spp.
# Summary of the method: as §5
# giant foxtail [12] = test: Test A pre-/postemergence herbicide test; assay type: in vivo, Setaria faberi
# Summary of the method: as §5
# morningglory [13] = test: Test B pre-/postemergence herbicide test; assay type: in vivo, Ipomoea coccinea; details: for Morningglory plant response rating: postemergence, scale 0 (no effect) to 100 (complete control)
# Summary of the method: as §1
# giant foxtail [14] = test: Test B pre-/postemergence herbicide test; assay type: in vivo, Setaria faberi; details: for Foxtail, Giant plant response rating: postemergence, scale 0 (no effect) to 100 (complete control)
# Summary of the method: as §2
# [15] = 125 g ai/ha, 0 = no effect, 100 = complete control, preemergence
# [16] = 500 g ai/ha, visual rating, 0 = no effect, 100 = complete control, preemergence
# [17] = Postemergence, 500 g ai/ha, 0 to 100 scale, 0 no effect, 100 complete control
# [18] = Postemergence, 2000 g ai/ha, 0 to 100 scale, 0 no effect, 100 complete control
# [19] = Preemergence, 2000 g ai/ha, visual rating, 0 to 100 scale (0 no effect, 100 complete control)
# [20] = preemergence, 500 g ai/ha, visual injury, 0 to 100 scale (0 no effect, 100 complete control)
smiles,measurement,setting,value
CCc1nc(C(C)(C)C)sc1C(=O)Nc1cccc(C(=O)N(CC)CC)n1 [Compound 214],Barnyardgrass plant response rating (0 to 100 scale),barnyardgrass [1]; [15],0
same,"Plant response rating, Barnyardgrass",barnyardgrass [1]; [16],20
same,Barnyardgrass plant response rating,"barnyardgrass [1]; 125 g ai/ha, visual rating",0
same,Barnyardgrass plant response rating,"barnyardgrass [1]; 500 g ai/ha, visual rating",0
same,Rice plant response rating,rice [2],0
same,Surinam Grass plant response rating (0 to 100 scale),Surinam grass; [15],0
same,"Plant response rating, Surinam Grass",Surinam grass; [16],30
same,Surinam Grass plant response rating,"Surinam grass; 125 g ai/ha, visual rating",0
same,Surinam Grass plant response rating,"Surinam grass; 500 g ai/ha, visual rating",10
same,Velvetleaf plant response rating (0 to 100 scale),velvetleaf [3]; [15],0
same,"Plant response rating, Velvetleaf",velvetleaf [3]; [16],0
same,Velvetleaf plant response rating,"velvetleaf [3]; 125 g ai/ha, visual rating",0
same,Velvetleaf plant response rating,"velvetleaf [3]; 500 g ai/ha, visual rating",10
same,Ducksalad plant response rating,ducksalad,30
same,Pigweed plant response rating (0 to 100 scale),pigweed; [15],0
same,"Plant response rating, Pigweed",pigweed; [16],100
same,Pigweed plant response rating,"pigweed; 125 g ai/ha, visual rating",0
same,Pigweed plant response rating,"pigweed; 500 g ai/ha, visual rating",0
same,Wheat plant response rating,wheat; 125 g ai/ha,0
same,Wheat plant response rating,wheat; 500 g ai/ha,0
same,"Crabgrass, Large plant response rating",large crabgrass [4]; [17],5
same,"Plant response rating, Crabgrass, Large",large crabgrass [4]; [18],10
same,"Crabgrass, Large plant response rating",large crabgrass [4]; [19],65
same,"Crabgrass, Large plant response rating",large crabgrass [4]; [20],55
same,"Sedge, Umbrella plant response rating",[5],50
same,Corn plant response rating (0 to 100 scale),corn; [15],0
same,"Plant response rating, Corn",corn; [16],0
same,Corn plant response rating,"corn; 125 g ai/ha, visual rating",0
same,Corn plant response rating,"corn; 500 g ai/ha, visual rating",20
same,"Crabgrass, Large plant response rating (0 to 100 scale)",large crabgrass [6]; [15],0
same,"Plant response rating, Crabgrass, Large",large crabgrass [6]; [16],70
same,"Crabgrass, Large plant response rating","large crabgrass [6]; 125 g ai/ha, visual rating",0
same,"Crabgrass, Large plant response rating","large crabgrass [6]; 500 g ai/ha, visual rating",0
same,Barnyardgrass plant response rating,barnyardgrass [7],0
same,Blackgrass plant response rating,blackgrass; 125 g ai/ha,0
same,Blackgrass plant response rating,blackgrass; 500 g ai/ha,0
same,Lambsquarters plant response rating (0 to 100 scale),lambsquarters; [15],0
same,"Plant response rating, Lambsquarters",lambsquarters; [16],80
same,Lambsquarters plant response rating,"lambsquarters; 125 g ai/ha, visual rating",0
same,Lambsquarters plant response rating,"lambsquarters; 500 g ai/ha, visual rating",0
same,"Oat, Wild plant response rating",wild oat; 125 g ai/ha,0
same,"Oat, Wild plant response rating",wild oat; 500 g ai/ha,0
same,Pigweed plant response rating,redroot pigweed; [17],20
same,"Plant response rating, Pigweed",redroot pigweed; [18],50
same,Pigweed plant response rating,redroot pigweed; [19],95
same,Pigweed plant response rating,redroot pigweed; [20],20
same,Cocklebur plant response rating (0 to 100 scale),cocklebur; [15],0
same,"Plant response rating, Cocklebur",cocklebur; [16],0
same,Cocklebur plant response rating,"cocklebur; 125 g ai/ha, visual rating",0
same,Cocklebur plant response rating,"cocklebur; 500 g ai/ha, visual rating",0
same,Velvetleaf plant response rating,velvetleaf [8]; [17],15
same,"Plant response rating, Velvetleaf",velvetleaf [8]; [18],20
same,Velvetleaf plant response rating,velvetleaf [8]; [19],20
same,Velvetleaf plant response rating,velvetleaf [8]; [20],5
same,Barnyardgrass plant response rating,barnyardgrass [9]; [17],0
same,"Plant response rating, Barnyardgrass",barnyardgrass [9]; [18],15
same,Barnyardgrass plant response rating,barnyardgrass [9]; [19],30
same,Barnyardgrass plant response rating,barnyardgrass [9]; [20],0
same,Rice plant response rating (0 to 100 scale),rice [10]; 125 g ai/ha,0
same,"Plant response rating, Rice","rice [10]; 500 g ai/ha, visual rating",0
same,Morningglory plant response rating,morningglory [11]; [17],0
same,"Plant response rating, Morningglory",morningglory [11]; [18],10
same,Morningglory plant response rating,morningglory [11]; [19],30
same,Morningglory plant response rating,morningglory [11]; [20],5
same,"Foxtail, Giant plant response rating",giant foxtail [12]; [17],15
same,"Plant response rating, Foxtail, Giant",giant foxtail [12]; [18],40
same,"Foxtail, Giant plant response rating",giant foxtail [12]; [19],55
same,"Foxtail, Giant plant response rating",giant foxtail [12]; [20],60
same,Morningglory plant response rating (0 to 100 scale),morningglory [13]; [15],0
same,"Plant response rating, Morningglory",morningglory [13]; [16],0
same,Morningglory plant response rating,"morningglory [13]; 125 g ai/ha, visual rating",0
same,Morningglory plant response rating,"morningglory [13]; 500 g ai/ha, visual rating",0
same,"Foxtail, Giant plant response rating (0 to 100 scale)",giant foxtail [14]; [15],0
same,"Plant response rating, Foxtail, Giant",giant foxtail [14]; [16],90
same,"Foxtail, Giant plant response rating","giant foxtail [14]; 125 g ai/ha, visual rating",0
same,"Foxtail, Giant plant response rating","giant foxtail [14]; 500 g ai/ha, visual rating",20
